# Entries after “also recorded” stand apart in the source; their conditions may differ. Structures can show the parent of a compound that is named as a salt.
# How the values were obtained:
# ZIKV (FSS13025 strain) = assay: qRT-PCR of total and (-) strand vRNA in hNPCs treated 48 h post-infection (FSS13025); type: cell-based, Zika virus; conditions: treatment at 48 h post-infection, 25 μM, additional 3 days
# Description: (A and B) Inhibitory curve and IC50 of AQ were calculated based on the infection rate (A) and normalized cell viability (B) (n=6). (C and D) Immunocytochemistry analysis (C) and quantification of infection rate and total cell number (D) of hNPCs after ZIKV infection treated with 15 μM AQ or DMSO or mock infection (n=3). Cells were fixed and stained for ZIKV E and with DAPI. Scale bars, 100 μm. p values were calculated by unpaired two-tailed Student's t-test. *p<0.05, and ***p<0.001. (E) qRT-PCR analysis of total and replicating (−) strand of ZIKV (MR 766 strain) vRNA level in hNPCs from two additional donors. hNPCs from different donors were treated with 25 μM HH at 24 h post-infection. (F) The expression dynamics of ZIKV vRNA (FSS13025 strain) in hNPCs. qRT-PCR analysis to quantify the total and replicating (−) strand ZIKV vRNA levels in hNPCs at different time points post-infection. […] (G) qRT-PCR analysis of hNPCs that were treated with 25 μM HH or DMSO at 48 h post-ZIKV (FSS13025 strain) infection and maintained for additional 3 days. p values were calculated by unpaired two-tailed Student's t-test. *p<0.05, **p<0.01 and ***p<0.001, unless otherwise stated. […]
# RNA Extraction and qRT-PCR. […] ZIKV vRNA levels were calculated using a standard curve generated using serial 10-fold dilutions of ZIKV vRNA.
# ZIKV MR766 virus strain = assay: Prophylactic treatment of ZIKV infected SCID-Beige mice; type: in vivo
# Description: (A) Scheme of prophylactic treatment of HH in vivo. HH was administrated to SCID-Beige mice 12 h before infection with MR766 virus strain. HH was injected at a dose of 100 mg/kg/day subcutaneously and euthanized at day 7. (B) qRT-PCR analysis of total ZIKV vRNA in liver, spleen, kidney and brain of ZIKV infected mice. n=12 for liver, spleen and kidney and 20 for brain. (C) qRT-PCR analysis of total ZIKV vRNA in brains of ZIKV-infected mice treated with vehicle (n=14) or HH (n=8). […] (D-F) Immunohistochemical analysis of adult cortex. […] Scale bar=100 μm in (D) and 10 μm in (E, F). (G-I) Immunohistochemical analysis of adult hippocampus. […] Scale bar=100 μm in (G) and 10 μm in (H, I). (J-L) Immunohistochemical analysis of adult striatum. […] Scale bar=100 μm in (J) and 10 μm in (K, L). (M, N) Immunohistochemical analysis of cellular apoptosis in adult cortex. […] Scale bar=100 μm in (M) and 10 μm in (N). (O, P) Expression kinetics of total vRNA (O) and (−) strand vRNA (P) of ZIKV (MR766 strain) in mouse brain. N is larger or equal to 4 mice at each time points. The mice were inoculated with (1×10^6 PFU) through intraperitoneal injection. The mice were euthanized at 12 h, 24 h, 3 days, 4 days and 5 days post-infection. (Q) Scheme of therapeutic treatment of HH on ZIKV (MR766 strain) infected mice. The SCID-beige mice were infected with ZIKV (MR766 strain, 1×10^6 PFU). The mice at 5 days post-infection were treated with 100 mg/kg HH or vehicle daily for 5 days. The mice were then euthanized and RNA from brains was analyzed using qRT-PCR. (R, S) qRT-PCR analysis of total vRNA (R) and (−) strand RNA (S) in the brains of mice treated with vehicle (n=8) or HH (n=8) at day 5 post-infection. (T, U) Expression kinetics of total vRNA (N) and (−) strand vRNA (O) of ZIKV (FSS13025 strain) in mouse brain. N is larger or equal to 4 mice at each time points. The mice were inoculated with (3×10^6 PFU) through intraperitoneal injection. The mice were euthanized at 12 h, 24 h, 3 days, 5 days and 7 days post-infection. (V) Scheme of therapeutic treatment of HH on ZIKV (FSS13025 strain) infected mice. The SCID-beige mice were infected with ZIKV (FSS13025 strain, 3×10^6 PFU). The mice at 7 days post-infection were treated with 100 mg/kg HH or vehicle daily for 7 days. The mice were euthanized after 7 days treatment and RNA from brains was analyzed using qRT-PCR. (W, X) qRT-PCR analysis of total vRNA (W) and (−) strand RNA (X) in the brains of mice treated with vehicle (n=8) or HH (n=11) at day 7 post-infection. p values were calculated by one-way repeated measures ANOVA or two-way repeated measures ANOVA with a Bonferroni test for multiple comparisons. *p<0.05, **p<0.01 and ***p<0.001.
# PBS, the solvent used to dissolve both compounds, was used as vehicle control.
# The mice were euthanized at day 7 post-infection. Total ZIKV vRNA was then quantified in multiple organs of ZIKV-infected mice treated with vehicle, including liver, spleen, kidney and brain (FIG. 4B).
# The immunohistochemical analysis of mouse tissues was performed on cryosections. In brief, the tissues were fixed overnight with 4% PFA at 4° C., embedded in OCT, and then sectioned at 30 μm for immunostaining. The primary and secondary antibodies were used as described above.
# Adult mouse infection and in vivo drug testing. 6-8 week old female SCID-Beige mice were infected with ZIKV (2.5×10^5 PFU in 0.5 ml culture fluid) through intraperitoneal injection.
# [1] = HH 100 mg/kg/day subcutaneously, hydrobromide
smiles,measurement,setting,value
"CN1CCC2=C[C@H](O)[C@H]3OC(=O)c4cc5c(cc4[C@H]3[C@@H]21)OCO5 [HH, hippeastrine hydrobromide]",total and replicating (-) strand ZIKV vRNAs in hNPCs (FSS13025),ZIKV (FSS13025 strain),completely suppressed
same,ZIKV vRNA in brain,"ZIKV MR766 virus strain; HH 100 mg/kg/day subcutaneously from 12 h before infection, day 7 post-infection",significantly lower level
same,ZIKV infection of adult cortex (immunohistochemistry),ZIKV MR766 virus strain; [1],fully inhibits infection of adult cortex; also recorded: completely inhibited
same,ZIKV infection of adult hippocampus (immunohistochemistry),ZIKV MR766 virus strain; [1],completely inhibits infection of the adult hippocampus; also recorded: completely inhibited
same,ZIKV infection of adult striatum (immunohistochemistry),ZIKV MR766 virus strain; [1],fully inhibits infection of the adult striatum; also recorded: completely inhibited
same,cellular apoptosis (CAS3) associated with ZIKV infection in the cortex,ZIKV MR766 virus strain; [1],rescues cellular apoptosis; also recorded: completely inhibited

# Source: patent US11466020B2, “Compounds and compositions for inhibition and elimination of Zika infection and uses for same” (Cornell University, priority 2017, dated 2022)
